In US6617350B2, “Inhibitors of aspartyl protease” (priority 1999, dated 2003):

Experiments:
HIV-1 (strain IIIB) = assay: microbe, parasite or virus in culture; assay type: cell-based; conditions: Human immunodeficiency virus 1, IIIB, MT4, Table 12; anti-viral potency in MT-4 cells; read-out: IC50
HIV-1 protease = HIV-1 protease (Human immunodeficiency virus type 1 group M subtype B, UniProt P04585); assay: biochemical; conditions: Table 12; HIV-1 protease; read-out: Ki

| SMILES | IC50 (HIV-1 (strain IIIB)) [nM] | Ki (HIV-1 protease) [nM] |
| --- | --- | --- |
| COC(=O)NCCCCC(C)(C)CN(C[C@@H](O)[C@H](Cc1ccccc1)NC(=O)O[C@H]1CO[C@H]2OCC[C@H]21)S(=O)(=O)c1ccc2c(c1)OCO2 [Compound 248, (3R,3aS, 6aR)hexahydrofuro[2,3-b]furan-3-yl N-[(1S,2R)-3-((1,3-benzodioxol-5-ylsulfonyl)6-[(methoxycarbonyl)amino]-2,2-dimethylhexylamino)-1-benzyl-2-hydroxypropyl]carbamate] | ≤ 100 | < 1 |
| CN(C)C(=O)NCCCCC(C)(C)CN(CC(O)C(Cc1ccccc1)NC(=O)OC1COC2OCCC12)S(=O)(=O)c1ccc2c(c1)OCO2 [Compound 249, (3R,3aS,6aR)hexahydrofuro[2,3-b]furan-3-yl N-(1S,2R)-3-[(1,3-benzodioxol-5-ylsulfonyl)(6-[(dimethylamino)carbonyl]amino-2,2-dimethylhexyl)amino]-1-benzyl-2-hydroxypropylcarbamate] | ≤ 100 | < 1 |
| COC(=O)NCCCCC(C)(C)CN(C[C@@H](O)[C@H](Cc1ccccc1)NC(=O)O[C@H]1CO[C@H]2OCC[C@H]21)S(=O)(=O)c1ccc2c(c1)OCCO2 [Compound 250, (3R,3aS,6aR)hexahydrofuro[2,3-b]furan-3-yl N-[(1S,2R)-1-benzyl-3-((2,3-dihydro-1,4-benzodioxin-6-ylsulfonyl)6-[(methoxycarbonyl)amino]-2,2-dimethylhexylamino)-2-hydroxypropyl]carbamate] | ≤ 100 | < 1 |
| CN(C)C(=O)NCCCCC(C)(C)CN(CC(O)C(Cc1ccccc1)NC(=O)OC1COC2OCCC12)S(=O)(=O)c1ccc2c(c1)OCCO2 [Compound 251, (3R,3aS,6aR)hexahydrofuro[2,3-b]furan-3-yl N-(1S,2R)-1-benzyl-3-[(2,3-dihydro-1,4-benzodioxin-6-ylsulfonyl)(6-[(dimethylamino)carbonyl]amino-2,2-dimethylhexyl)amino]-2-hydroxypropylcarbamate] | ≤ 100 | < 1 |
| CC(=O)CCC(C)(C)CN(CC(O)[C@H](Cc1ccccc1)NC(=O)OC1COC2OCCC12)S(=O)(=O)c1ccc2c(c1)OCCO2 (stereo partly drawn) [Compound 252, (3R,3aS,6aR)-Hexahydrofuro[2,3-b]furan-3-yl N-((1S,2R)-3-(1,4-benzodioxan-6-sulfonyl)(2,2-dimethyl-5-oxohexyl)amino-1-benzyl-2-hydroxypropyl)carbamate] | ≤ 100 | < 1 |
| CC(=O)CCC(C)(C)CN(CC(O)[C@H](Cc1ccccc1)NC(=O)OC1COC2OCCC12)S(=O)(=O)c1cccc(N)c1 (stereo partly shown) [Compound 253] | ≤ 100 | < 1 |
| CC(=O)CCC(C)(C)CN(CC(O)[C@H](Cc1ccccc1)NC(=O)OC1COC2OCCC12)S(=O)(=O)c1cccc(N(C)C)c1 (stereo partly shown) [Compound 254] | ≤ 100 | < 1 |
| CC(C)(CCCCNS(C)(=O)=O)CN(C[C@@H](O)[C@H](Cc1ccccc1)NC(=O)O[C@H]1CO[C@H]2OCC[C@H]21)S(=O)(=O)c1ccc2c(c1)OCO2 [Compound 255, (3R,3aS,6aR)hexahydrofuro[2,3-b]furan-3-yl N-[(1S,2R)-3-((1,3-benzodioxol-5-ylsulfonyl)2,2-dimethyl-6-[(methylsulfonyl)amino]hexylamino)-1-benzyl-2-hydroxypropyl]carbamate] | ≤ 100 | < 1 |
| CC(C)(CCCCNS(C)(=O)=O)CN(C[C@@H](O)[C@H](Cc1ccccc1)NC(=O)O[C@H]1CO[C@H]2OCC[C@H]21)S(=O)(=O)c1ccc2c(c1)OCCO2 [Compound 256, (3R,3aS,6aR)hexahydrofuro[2,3-b]furan-3-yl N-[(1S,2R)-1-benzyl-3-((2,3-dihydro-1,4-benzodioxin-6-ylsulfonyl)2,2-dimethyl-6-[(methylsulfonyl)amino]hexylamino)-2-hydroxypropyl]carbamate] | ≤ 100 | < 1 |
| CC(C)(CCCN)CN(CC(O)C(Cc1ccccc1)NC(=O)OC1COC2OCCC12)S(=O)(=O)c1ccc2c(c1)OCO2 [Compound 257, 3R,3aS,6aR)hexahydrofuro[2,3-b]furan-3-yl N-(1S,2R)-3-[(5-amino-2,2-dimethylpentyl)(1,3-benzodioxol-5-ylsulfonyl)amino]-1-benzyl-2-hydroxypropylcarbamate] | 100 to 500 | < 1 |
| CNc1cccc(S(=O)(=O)N(C[C@@H](O)[C@H](Cc2ccccc2)NC(=O)O[C@H]2CO[C@H]3OCC[C@H]32)CC(C)(C)CCCN)c1 [Compound 258, (3R,3aS,6aR)hexahydrofuro[2,3-b]furan-3-yl N-[(1S,2R)-3-((5-amino-2,2-dimethylpentyl)[3-(methylamino)phenyl]sulfonylamino)-1-benzyl-2-hydroxypropyl]carbamate] | 100 to 500 | < 1 |
| COc1ccc(S(=O)(=O)N(CC(O)[C@H](Cc2ccccc2)NC(=O)OC2COC3OCCC23)CC(C)(C)CCCC(C)=O)cc1 (stereo partly shown) [Compound 259] | ≤ 100 | < 1 |
| C/C(CCC(C)(C)CN(CC(O)[C@H](Cc1ccccc1)NC(=O)OC1COC2OCCC12)S(=O)(=O)c1ccc2c(c1)OCO2)=N\O (stereo partly drawn) [Compound 260, (3R,3aS,6aR)-Hexahydrofuro[2,3-b]furan-3-yl N-((1S,2R)-1-benzyl-3-(2,2-dimethyl-5-hydroxyiminohexyl)[(3,4-methylenedioxyphenyl)sulfonyl]amino-2-hydroxypropyl)carbamate] | ≤ 100 | < 1 |
| CO/N=C(\C)CCC(C)(C)CN(CC(O)[C@H](Cc1ccccc1)NC(=O)OC1COC2OCCC12)S(=O)(=O)c1ccc2c(c1)OCO2 (stereo partly drawn) [Compound 261, (3R,3aS,6aR)-Hexahydrofuro[2,3-b]furan-3-yl-N-((1S,2R)-1-benzyl-3-(2,2-dimethyl-5-methoxyiminohexyl)[(3,4-methylenedioxyphenyl)sulfonyl]amino-2-hydroxypropyl)carbamate] | ≤ 100 | < 1 |
| CC(C)(CCCN)CN(CC(O)C(Cc1ccccc1)NC(=O)OC1COC2OCCC12)S(=O)(=O)c1ccc2c(c1)OCCO2 [Compound 262, (3R,3aS,6aR)hexahydrofuro[2,3-b]furan-3-yl N-(1S,2R)-3-[(5-amino-2,2-dimethylpentyl)(2,3-dihydro-1,4-benzodioxin-6-ylsulfonyl)amino]-1-benzyl-2-hydroxypropylcarbamate] | 100 to 500 | < 1 |
| COC(=O)NCCCC(C)(C)CN(C[C@@H](O)[C@H](Cc1ccccc1)NC(=O)O[C@H]1CO[C@H]2OCC[C@H]21)S(=O)(=O)c1ccc2c(c1)OCO2 [Compound 263, (3R,3aS,6aR)hexahydrofuro[2,3-b]furan-3-yl N-[(1S,2R)-3-((1,3-benzodioxol-5-ylsulfonyl)5-[(methoxycarbonyl)amino]-2,2-dimethylpentylamino)-1-benzyl-2-hydroxypropyl]carbamate] | ≤ 100 | < 1 |
| CNc1cccc(S(=O)(=O)N(C[C@@H](O)[C@H](Cc2ccccc2)NC(=O)O[C@H]2CO[C@H]3OCC[C@H]32)CC(C)(C)CCCNC(=O)OC)c1 [Compound 264, (3R,3aS,6aR)hexahydrofuro[2,3-b]furan-3-yl N-[(1S,2R)-1-benzyl-2-hydroxy-3-(5-[(methoxycarbonyl)amino]-2,2-dimethylpentyl[3-(methylamino)phenyl]sulfonylamino)propyl]carbamate] | ≤ 100 | < 1 |
